Source: patent US20200405697A1, “Antitumor Agent” (Taiho Pharmaceutical Co., Ltd, priority 2017, published 2020)

Molecular target: T1, human RNR (histidine tagged human M1 and human M2 proteins) (Homo sapiens, UniProt P23921)
T1 construct: made in house; host or cells: Escherichia coli
T1 sequence (P23921 1-792): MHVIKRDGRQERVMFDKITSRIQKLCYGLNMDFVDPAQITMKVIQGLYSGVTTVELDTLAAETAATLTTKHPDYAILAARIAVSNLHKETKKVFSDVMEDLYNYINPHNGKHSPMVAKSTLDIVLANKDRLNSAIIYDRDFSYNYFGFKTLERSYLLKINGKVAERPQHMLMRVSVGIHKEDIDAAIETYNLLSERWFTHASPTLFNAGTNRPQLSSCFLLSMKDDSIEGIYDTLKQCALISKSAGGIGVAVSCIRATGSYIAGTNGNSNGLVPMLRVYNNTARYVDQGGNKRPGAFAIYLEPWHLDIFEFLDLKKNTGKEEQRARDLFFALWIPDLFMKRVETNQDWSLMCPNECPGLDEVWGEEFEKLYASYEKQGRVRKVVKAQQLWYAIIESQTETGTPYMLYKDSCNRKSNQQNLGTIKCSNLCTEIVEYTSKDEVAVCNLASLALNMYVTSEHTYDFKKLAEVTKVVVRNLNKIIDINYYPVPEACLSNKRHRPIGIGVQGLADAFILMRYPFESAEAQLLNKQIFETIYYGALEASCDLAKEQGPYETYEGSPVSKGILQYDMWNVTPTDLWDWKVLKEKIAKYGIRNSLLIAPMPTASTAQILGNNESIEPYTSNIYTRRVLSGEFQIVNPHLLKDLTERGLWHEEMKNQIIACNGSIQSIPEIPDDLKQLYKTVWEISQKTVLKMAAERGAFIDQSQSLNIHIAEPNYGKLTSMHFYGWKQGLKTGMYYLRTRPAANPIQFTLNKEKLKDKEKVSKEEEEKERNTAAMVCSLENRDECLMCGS
Experiment: Human RNR inhibition effect (dCDP formation from CDP)
Type: biochemical
Conditions: 10 μM CDP, 37° C. for 30 minutes, read-out: RNR inhibitory activity IC50
Outline: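 His-tagged human M1 (isoform 1) and N-terminal 59-aa-truncated M2 (isoform 2), E. coli-expressed, Ni-purified, preincubated 20 min with compound (1% DMSO). Reaction with 10 μM CDP, 2 mM ATP, 0.24 mM NADPH, 6 mM DTT, 4 mM Mg acetate, 100 mM KCl, 50 mM HEPES pH 7.2, 30 min at 37° C. dCDP formed quantified by reverse-phase HPLC after heat stop.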

IC50	SMILES
0.27 µM	Cc1ccc(F)c([C@@H](C)[C@H](NS(=O)(=O)c2ccc(Cl)cc2C(=O)NCCO)c2n[nH]c(=O)o2)c1C [Example 248, 5-chloro-2-(N-((1S,2R)-2-(6-fluoro-2,3-dimethylphenyl)-1-(5-oxo-4,5-dihydro-1,3,4-oxadiazol-2-yl)propyl)sulfamoyl)-N-(2-hydroxyethyl)benzamide]
0.1 µM	Cc1c(Cl)ccc(F)c1[C@@H](C)[C@H](NS(=O)(=O)c1ncc(Cl)cc1C(N)=O)c1n[nH]c(=O)o1 [Example 249, 5-chloro-2-(N-((1S,2R)-2-(3-chloro-6-fluoro-2-methylphenyl)-1-(5-oxo-4,5-dihydro-1,3,4-oxadiazol-2-yl)propyl)sulfamoyl)nitotinamide]
0.02 µM	Cc1ccc(F)c([C@@H](C)[C@H](NS(=O)(=O)c2ncc(Br)cc2C(N)=O)c2n[nH]c(=O)o2)c1C [Example 250, 5-bromo-2-(N-((1S,2R)-2-(6-fluoro-2,3-dimethylphenyl)-1-(5-oxo-4,5-dihydro-1,3,4-oxadiazol-2-yl)propyl)sulfamoyl)nicotinamide]
0.25 µM	CNC(=O)c1cc(Br)cnc1S(=O)(=O)N[C@H](c1n[nH]c(=O)o1)[C@H](C)c1c(F)ccc(C)c1C [Example 251, 5-bromo-2-(N-((1S,2R)-2-(6-fluoro-2,3-dimethylphenyl)-1-(5-oxo-4,5-dihydro-1,3,4-oxadiazol-2-yl)propyl)sulfamoyl)-N-methylnicotinamide]

Second part, the compound before the results:

SMILES	IC50
Cc1ccc(F)c([C@@H](C)[C@H](NS(=O)(=O)c2ccc(Cl)cc2C(C)O)c2n[nH]c(=O)o2)c1C (stereo partly drawn) [Example 236, 4-chloro-N-((1S,2R)-2-(6-fluoro-2,3-dimethylphenyl)-1-(5-oxo-4,5-dihydro-1,3,4-oxadiazol-2-yl)propyl)-2-(1-hydroxyethyl)benzenesulfonamide]	0.38 µM
Cc1ccc(F)c([C@@H](C)[C@H](NS(=O)(=O)c2ccc(Cl)c3c2C(O)CCC3)c2n[nH]c(=O)o2)c1C (stereo partly drawn) [Example 240, 4-chloro-N-((1S,2R)-2-(6-fluoro-2,3-dimethylphenyl)-1-(5-oxo-4,5-dihydro-1,3,4-oxadiazol-2-yl)propyl)-8-hydroxy-5,6,7,8-tetrahydronaphthalene-1-sulfonamide]	0.91 µM
Cc1ccc(F)c([C@@H](C)[C@H](NS(=O)(=O)c2ccc(F)c3c2OCCC3O)c2n[nH]c(=O)o2)c1C (stereo partly drawn) [Example 241, 5-fluoro-N-((1S,2R)-2-(6-fluoro-2,3-dimethylphenyl)-1-(5-oxo-4,5-dihydro-1,3,4-oxadiazol-2-yl)propyl)-4-hydroxychroman-8-sulfonamide]	0.14 µM
Cc1ccc(F)c([C@@H](C)[C@H](NS(=O)(=O)c2c(F)cc(F)c3c2OCCC3O)c2n[nH]c(=O)o2)c1C (stereo partly drawn) [Example 242, 5,7-difluoro-N-((1S,2R)-2-(6-fluoro-2,3-dimethylphenyl)-1-(5-oxo-4,5-dihydro-1,3,4-oxadiazol-2-yl)propyl)-4-hydroxychroman-8-sulfonamide]	0.23 µM
Cc1ccc(F)c([C@@H](C)[C@H](NS(=O)(=O)c2ncc(Cl)cc2C(N)=O)c2n[nH]c(=O)o2)c1C [Example 245, 5-chloro-2-(N-((1S,2R)-2-(6-fluoro-2,3-dimethylphenyl)-1-(5-oxo-4,5-dihydro-1,3,4-oxadiazol-2-yl)propyl)sulfamoyl)nicotinamide]	0.04 µM
Cc1ccc(F)c([C@@H](C)[C@H](NS(=O)(=O)c2ccc(Cl)cc2C(=O)N(C)C)c2n[nH]c(=O)o2)c1C [Example 246, 5-chloro-2-(N-((1S,2R)-2-(6-fluoro-2,3-dimethylphenyl)-1-(5-oxo-4,5-dihydro-1,3,4-oxadiazol-2-yl)propyl)sulfamoyl)-N,N-dimethylbenzamide]	0.5 µM
Cc1ccc(F)c([C@@H](C)[C@H](NS(=O)(=O)c2ccc(Cl)cc2C(=O)N2CCC2)c2n[nH]c(=O)o2)c1C [Example 247, 2-(azetidine-1-carbonyl)-4-chloro-N-((1S,2R)-2-(6-fluoro-2,3-dimethylphenyl)-1-(5-oxo-4,5-dihydro-1,3,4-oxadiazol-2-yl)propyl)benzenesulfonamide]	0.41 µM
